According to PubChem BioAssay AID1259407 (Chemical Carcinogenesis Research Information System (CCRIS), 2018):
Active and inactive are the calls of the source. No rule for the calls is given here.

System: CCRIS mutagenicity, Ames/micronucleus/aberration tests
Test: CCRIS mutagenicity studies
[1] = Test System: AMES SALMONELLA TYPHIMURIUM, Strain/Indicator: TA97, Metabolic Activation: NONE, Method: STANDARD PLATE
[2] = Test System: AMES SALMONELLA TYPHIMURIUM, Strain/Indicator: TA98, Metabolic Activation: NONE, Method: STANDARD PLATE
[3] = Test System: AMES SALMONELLA TYPHIMURIUM, Strain/Indicator: TA100, Metabolic Activation: NONE, Method: STANDARD PLATE
[4] = Test System: AMES SALMONELLA TYPHIMURIUM, Strain/Indicator: TA1535, Metabolic Activation: NONE, Method: STANDARD PLATE
[5] = Test System: AMES SALMONELLA TYPHIMURIUM, Strain/Indicator: TA1537, Metabolic Activation: NONE, Method: STANDARD PLATE
[6] = Test System: AMES SALMONELLA TYPHIMURIUM, Strain/Indicator: TA98, Metabolic Activation: RAT, LIVER, S-9, AROCLOR 1254, Method: STANDARD PLATE
[7] = Test System: AMES SALMONELLA TYPHIMURIUM, Strain/Indicator: TA100, Metabolic Activation: RAT, LIVER, S-9, AROCLOR 1254, Method: STANDARD PLATE
[8] = Test System: AMES SALMONELLA TYPHIMURIUM, Strain/Indicator: TA1535, Metabolic Activation: RAT, LIVER, S-9, AROCLOR 1254, Method: STANDARD PLATE
[9] = Test System: AMES SALMONELLA TYPHIMURIUM, Strain/Indicator: TA1537, Metabolic Activation: RAT, LIVER, S-9, AROCLOR 1254, Method: STANDARD PLATE
[10] = Test System: AMES SALMONELLA TYPHIMURIUM, Strain/Indicator: TA1538, Metabolic Activation: NONE, Method: STANDARD PLATE
[11] = Test System: AMES SALMONELLA TYPHIMURIUM, Strain/Indicator: TA1538, Metabolic Activation: RAT, LIVER, S-9, AROCLOR 1254, Method: STANDARD PLATE

**Q.** For `CC(=O)c1cc2c(cc1C)C(C)(C)C(C)CC2(C)C` (stereo unspecified), which mutagenic call (Test System: AMES SALMONELLA TYPHIMURIUM, Strain/Indicator: TA97, Metabolic Activation: NONE, Method: PREINCUBATION) is on record?
**A.** inactive; negative

**Q.** And the mutagenic call [1]?
**A.** inactive; negative

**Q.** What about the mutagenic call (Test System: AMES SALMONELLA TYPHIMURIUM, Strain/Indicator: TA97, Metabolic Activation: RAT LIVER S-9, AROCLOR 1254, Method: STANDARD PLATE) of the same molecule?
**A.** inactive; negative

**Q.** And the mutagenic call (Test System: AMES SALMONELLA TYPHIMURIUM, Strain/Indicator: TA97, Metabolic Activation: RAT LIVER S-9, PHENOBARBITAL, BETA-NAPHTHOFLAVONE, Method: PREINCUBATION)?
**A.** inactive; negative

**Q.** What about the mutagenic call (Test System: AMES SALMONELLA TYPHIMURIUM, Strain/Indicator: TA97, Metabolic Activation: RAT LIVER S-9, PHENOBARBITAL, BETA-NAPHTHOFLAVONE, Method: STANDARD PLATE) of the same molecule?
**A.** inactive; negative

**Q.** And the mutagenic call (Test System: AMES SALMONELLA TYPHIMURIUM, Strain/Indicator: TA98, Metabolic Activation: NONE, Method: PREINCUBATION)?
**A.** inactive; negative

**Q.** What about the mutagenic call [2] of the same molecule?
**A.** inactive; negative

**Q.** And the mutagenic call (Test System: AMES SALMONELLA TYPHIMURIUM, Strain/Indicator: TA98, Metabolic Activation: RAT LIVER S-9, AROCLOR 1254, Method: STANDARD PLATE)?
**A.** inactive; negative

**Q.** And the mutagenic call (Test System: AMES SALMONELLA TYPHIMURIUM, Strain/Indicator: TA98, Metabolic Activation: RAT LIVER S-9, PHENOBARBITAL, BETA-NAPHTHOFLAVONE, Method: PREINCUBATION)?
**A.** inactive; negative

**Q.** And the mutagenic call (Test System: AMES SALMONELLA TYPHIMURIUM, Strain/Indicator: TA98, Metabolic Activation: RAT LIVER S-9, PHENOBARBITAL, BETA-NAPHTHOFLAVONE, Method: STANDARD PLATE)?
**A.** inactive; negative

**Q.** And the mutagenic call (Test System: AMES SALMONELLA TYPHIMURIUM, Strain/Indicator: TA100, Metabolic Activation: NONE, Method: PREINCUBATION)?
**A.** inactive; negative

**Q.** What about the mutagenic call [3] of the same molecule?
**A.** inactive; negative

**Q.** What about the mutagenic call (Test System: AMES SALMONELLA TYPHIMURIUM, Strain/Indicator: TA100, Metabolic Activation: RAT LIVER S-9, AROCLOR 1254, Method: STANDARD PLATE) of the same molecule?
**A.** inactive; negative

**Q.** And the mutagenic call (Test System: AMES SALMONELLA TYPHIMURIUM, Strain/Indicator: TA100, Metabolic Activation: RAT LIVER S-9, PHENOBARBITAL, BETA-NAPHTHOFLAVONE, Method: PREINCUBATION)?
**A.** inactive; negative

**Q.** What about the mutagenic call (Test System: AMES SALMONELLA TYPHIMURIUM, Strain/Indicator: TA100, Metabolic Activation: RAT LIVER S-9, PHENOBARBITAL, BETA-NAPHTHOFLAVONE, Method: STANDARD PLATE) of the same molecule?
**A.** inactive; negative

**Q.** And the mutagenic call (Test System: AMES SALMONELLA TYPHIMURIUM, Strain/Indicator: TA102, Metabolic Activation: NONE, Method: PREINCUBATION)?
**A.** inactive; negative

**Q.** And the mutagenic call (Test System: AMES SALMONELLA TYPHIMURIUM, Strain/Indicator: TA102, Metabolic Activation: NONE, Method: STANDARD PLATE)?
**A.** inactive; negative

**Q.** And the mutagenic call (Test System: AMES SALMONELLA TYPHIMURIUM, Strain/Indicator: TA102, Metabolic Activation: RAT LIVER S-9, AROCLOR 1254, Method: STANDARD PLATE)?
**A.** inactive; negative

**Q.** And the mutagenic call (Test System: AMES SALMONELLA TYPHIMURIUM, Strain/Indicator: TA102, Metabolic Activation: RAT LIVER S-9, PHENOBARBITAL, BETA-NAPHTHOFLAVONE, Method: PREINCUBATION)?
**A.** inactive; negative

**Q.** What about the mutagenic call (Test System: AMES SALMONELLA TYPHIMURIUM, Strain/Indicator: TA102, Metabolic Activation: RAT LIVER S-9, PHENOBARBITAL, BETA-NAPHTHOFLAVONE, Method: STANDARD PLATE) of the same molecule?
**A.** inactive; negative

**Q.** And the mutagenic call (Test System: AMES SALMONELLA TYPHIMURIUM, Strain/Indicator: TA1535, Metabolic Activation: NONE, Method: PREINCUBATION)?
**A.** inactive; negative

**Q.** And the mutagenic call [4]?
**A.** inactive; negative

**Q.** And the mutagenic call (Test System: AMES SALMONELLA TYPHIMURIUM, Strain/Indicator: TA1535, Metabolic Activation: RAT LIVER S-9, PHENOBARBITAL, BETA-NAPHTHOFLAVONE, Method: PREINCUBATION)?
**A.** inactive; negative

**Q.** And the mutagenic call (Test System: AMES SALMONELLA TYPHIMURIUM, Strain/Indicator: TA1535, Metabolic Activation: RAT LIVER S-9, PHENOBARBITAL, BETA-NAPHTHOFLAVONE, Method: STANDARD PLATE)?
**A.** inactive; negative

**Q.** What about the mutagenic call (Test System: AMES SALMONELLA TYPHIMURIUM, Strain/Indicator: TA1537, Metabolic Activation: NONE, Method: PREINCUBATION) of the same molecule?
**A.** inactive; negative

**Q.** What about the mutagenic call [5] of the same molecule?
**A.** inactive; negative

**Q.** And the mutagenic call (Test System: AMES SALMONELLA TYPHIMURIUM, Strain/Indicator: TA1537, Metabolic Activation: RAT LIVER S-9, PHENOBARBITAL, BETA-NAPHTHOFLAVONE, Method: PREINCUBATION)?
**A.** inactive; negative

**Q.** What about the mutagenic call (Test System: AMES SALMONELLA TYPHIMURIUM, Strain/Indicator: TA1537, Metabolic Activation: RAT LIVER S-9, PHENOBARBITAL, BETA-NAPHTHOFLAVONE, Method: STANDARD PLATE) of the same molecule?
**A.** inactive; negative

**Q.** And the mutagenic call (Test System: ESCHERICHIA COLI, Strain/Indicator: WP2 UVR A, Metabolic Activation: NONE, Method: PREINCUBATION)?
**A.** inactive; negative

**Q.** What about the mutagenic call (Test System: ESCHERICHIA COLI, Strain/Indicator: WP2 UVR A, Metabolic Activation: NONE, Method: STANDARD PLATE) of the same molecule?
**A.** inactive; negative

**Q.** What about the mutagenic call (Test System: ESCHERICHIA COLI, Strain/Indicator: WP2 UVR A, Metabolic Activation: RAT LIVER S-9, PHENOBARBITAL, BETA-NAPHTHOFLAVONE, Method: PREINCUBATION) of the same molecule?
**A.** inactive; negative

**Q.** And the mutagenic call (Test System: ESCHERICHIA COLI, Strain/Indicator: WP2 UVR A, Metabolic Activation: RAT LIVER S-9, PHENOBARBITAL, BETA-NAPHTHOFLAVONE, Method: STANDARD PLATE)?
**A.** inactive; negative

**Q.** And the mutagenic call (Test System: UDS RAT HEPATOCYTES, Metabolic Activation: NONE, Method: NET NUCLEAR GRAIN COUNT)?
**A.** inactive; negative

**Q.** `CS(=O)(=O)c1ccc(Cl)cc1` was tested. Which mutagenic call [2] did it give?
**A.** inactive; negative

**Q.** And the mutagenic call [6]?
**A.** inactive; negative

**Q.** What about the mutagenic call [3] of the same molecule?
**A.** inactive; negative

**Q.** What about the mutagenic call [7] of the same molecule?
**A.** inactive; negative

**Q.** And the mutagenic call [4]?
**A.** inactive; negative

**Q.** And the mutagenic call [8]?
**A.** inactive; negative

**Q.** And the mutagenic call [5]?
**A.** inactive; negative

**Q.** What about the mutagenic call [9] of the same molecule?
**A.** inactive; negative

**Q.** And the mutagenic call [10]?
**A.** inactive; negative

**Q.** And the mutagenic call [11]?
**A.** inactive; negative

**Q.** For `Nc1cc([N+](=O)[O-])c(CO)c([N+](=O)[O-])c1`, which mutagenic call (End Point: In vitro chromosomal aberrations, Test System: V79 Chinese hamster fibroblasts, Metabolic Activation: None) is on record?
**A.** inactive; negative

**Q.** What about the mutagenic call (Test System: Ames Salmonella typhimurium, Strain/Indicator: TA98, Metabolic Activation: None, Method: Standard plate) of the same molecule?
**A.** active; positive

**Q.** What about the mutagenic call (Test System: Ames Salmonella typhimurium, Strain/Indicator: TA98, Metabolic Activation: Rat, Liver, S-9, Method: Standard plate) of the same molecule?
**A.** active; positive

**Q.** And the mutagenic call (Test System: Ames Salmonella typhimurium, Strain/Indicator: TA98NR, Metabolic Activation: None, Method: Standard plate)?
**A.** active; positive, ta98nr is the nitroreductase-deficient derivative of ta98.

**Q.** What about the mutagenic call (Test System: Ames Salmonella typhimurium, Strain/Indicator: TA100, Metabolic Activation: None, Method: Standard plate) of the same molecule?
**A.** active; positive

**Q.** What about the mutagenic call (Test System: Ames Salmonella typhimurium, Strain/Indicator: TA100, Metabolic Activation: Rat, Liver, S-9, Method: Standard plate) of the same molecule?
**A.** active; positive

**Q.** With `COC/C(=C/c1ccccc1)OC` as the molecule, how does the mutagenic call [1] read?
**A.** inactive; negative

**Q.** What about the mutagenic call (Test System: AMES SALMONELLA TYPHIMURIUM, Strain/Indicator: TA97, Metabolic Activation: RAT, LIVER, S-9, AROCLOR 1254, Method: STANDARD PLATE) of the same molecule?
**A.** inactive; negative

**Q.** What about the mutagenic call [2] of the same molecule?
**A.** inactive; negative

**Q.** And the mutagenic call [6]?
**A.** inactive; negative

**Q.** And the mutagenic call [3]?
**A.** inactive; negative

**Q.** What about the mutagenic call [7] of the same molecule?
**A.** inactive; negative

**Q.** And the mutagenic call [4]?
**A.** inactive; negative

**Q.** And the mutagenic call [8]?
**A.** inactive; negative

**Q.** What about the mutagenic call [5] of the same molecule?
**A.** active; positive

**Q.** And the mutagenic call [9]?
**A.** inactive; negative

**Q.** What about the mutagenic call [10] of the same molecule?
**A.** inactive; negative

**Q.** What about the mutagenic call [11] of the same molecule?
**A.** inactive; negative
